This is an account of results in paper PMC11085682, “Identification of Novel Peptides in Distillers’ Grains as Antioxidants, α-Glucosidase Inhibitors, and Insulin Sensitizers: In Silico and In Vitro Evaluation” (Nutrients, 2024).

Where two headings read alike, the source gives them in different places. Where a SMILES comes first, the peptide text is derived from it. Where no end group is shown, it is not given here.

Series [1] addresses α-glucosidase (Saccharomyces cerevisiae, UniProt P53341). In words: α-glucosidase inhibitory effect (pNPG). Format: biochemical. The conditions noted are these: synthetic peptides; PBS pH 6.8, 37 °C, 15 min pre-incubation, 30 min with pNPG, absorbance 405 nm; median (25%, 75% quartiles), at least three experiments; read-out: IC50, α-glucosidase inhibition. How it is done:
Distillers’ grains were generously supplied by the Suzhou Bridge Wine & Spirits Co. (Suzhou, China). Peptides YPLPR, AFEPLR, and NDPF (purity ≥ 98%) were composed by All Peptide Biotechnology Co., Ltd. (Hangzhou, China). Dulbecco’s Modified Eagle Medium (DMEM) medium, embracing 10.0% fetal bovine serum (FBS) and 1.0 mol/L phosphate buffer (PBS) was bought from Gibco (Life Technologies, Inc., Carlsbad, CA, USA). Alkaline protease (2.4 U/g), penicillin-streptomycin (100.0 U/mL penicillin-100.0 […] streptomycin), 3-(4,5-dimethylthiazol-2)-2,5-diphenyltetrazolium bromide (MTT) powder, 2′,7′-dichlorofluorescence yellow diacetate (DCFH-DA), and trypsin solution were purchased from Solarbio (Beijing Solarbio Science and Technology Co., Ltd., Beijing, China). The HepG2 cell line was acquired from the Kunming Institute of Animal Science, Chinese Academy of Sciences (Kunming, China). Rosiglitazone, insulin, ABTS, DPPH, α-glucosidase derived from Saccharomyces cerevisiae (type I, protein content of at least 30.0 units per milligram), and p-nitrobenzene α-D-glucopyranoside (pNPG, with a minimum purity of 99.0%) were purchased from Sigma-Aldrich (located in Shanghai, China). The glucose kit was purchased from Nanjing Jiancheng Co. (Nanjinng, China). […]
The inhibitory effect on α-glucosidase activity of the protein hydrolysates from distillers’ grains or three selected peptides was assessed following the methodology outlined by Zhang et al. (2018) with slight modifications, and the concrete method is shown in the Supplementary Materials. […]
The inhibitory effect on α-glucosidase activity of the protein hydrolysates from distillersʹ grains or three selected peptides was assessed following the methodology outlined by Zhang et al. (2018) with slight modifications. […]
The absorbance of the resulting reaction mixture was measured at a wavelength […]
of 405 nm using an enzyme-labeled instrument. […] In this formula, ʺAʺ represents the absorbance value. […]
The antioxidant properties of vinasse hydrolysates or three screening peptides were evaluated by DPPH and ABTS free radical scavenging […]

Series [2] relates to HepG2 cells. Description: MTT cytotoxicity of samples and insulin in HepG2 cells. From the text:
(§1) The MTT method was adopted to assess the impact of samples and insulin on cell viability, helping determine the optimal concentrations of insulin and the samples. The experimental protocol for improving insulin resistance followed previous methods. Details are provided in the Supplementary Materials. In this experiment, various groups were established, incorporating the blank control group (K), model group (M), peptide sample groups, and the positive control group (treated with rosiglitazone).
(§2) […] of the main pathogenic mechanisms of type 2 diabetes mellitus, and the liver is an important site for insulin to function. […] As the cellular insulin resistance condition arises, the utilization of glucose by the cells decreases, and the consumption of glucose decreases. Therefore, insulin resistance is usually expressed by the consumption of glucose in studies. Using the MTT method, this study explored the effect of different concentrations of insulin on cellular glucose consumption after 24 h of action with HepG2 cells.

Series [3] has as its system HepG2 cells. In words: H2O2 effect on cell viability (cell damage model). The conditions noted are these: H2O2 1.2 mmol/L; median (25%, 75% quartiles), n = 4. Format: cell-based, human. The text has this:
Excessive ROS may attack normal cells or biological macromolecules and undergo oxidative stress, causing severe damage to cellular structures, which causes many diabetic complications and chronic diseases. Accordingly, in this study, the scavenging activities of ABTS and DPPH radicals of bioactive peptides were not only investigated by in vitro experiments, but their antioxidant activity was also further investigated at the cellular level. The cell damage rate of the H2O2-induced cell damage model was generally around 50%. […] When the concentration of H2O2 was 1.2 mmol/L, the cell viability rate was 56.38 (50.33, 68.00) %, so the concentration of H2O2 of 1.2 mmol/L established the cell damage model in this study. […] Consistent with 3.6, YPLPR, AFEPLR, and NDPF were used at 1.0 mmol/L for subsequent experiments.

The test system of series [4] is HepG2 cells. In words: Glucose consumption of insulin-resistant HepG2 cells. In kind it is cell-based, human. The conditions noted are these: 20.0 µmol/L positive control, 24 h, after 25.0 µmol/L insulin 24 h; median (25%, 75% quartiles), n = 6; model group M 6.08 (5.80, 6.81) mmol/L.
Text: as §1, §2

Series [5] concerns α-glucosidase. Particulars: cited from earlier work; for α-glucosidase activity inhibition: peptides from Spanish dry-cured ham. The text has this: Since these peptides have small molecular weights, they are more likely to be absorbed intact by the gastrointestinal tract after oral ingestion, thereby exerting systemic or local effects. Consequently, the study of bioactive peptides has progressively emerged as a prominent research area in recent years. Numerous studies have dem ... || α-glucosidase is a membrane-associated enzyme. Inhibition of α-glucosidase activity can reduce carbohydrate hydrolysis, thus reducing sugar absorption and effectively controlling diabetes.. […] In the study on rice wine peptides, the α-glucosidase inhi ... || Due to the fact that α-glucosidase is a more important and directly regulated target in the treatment of diabetes, the potential inhibitory activity of α-glucosidase was used as the main condition of inquiry for further analysis. […] Therefore, this peptide was selected as a positive control to facilitate the analysis of the current study, and its affinity grading after molecular docking with α-glucosidase was −9.1 kcal/mol. Four peptides, YPLPR, AFEPLR, NDPF, and WN ... || (+ 1 further places)

Details of series [6]: method as in doi:10.1016/j.jff.2016.08.021. Particulars: at different concentrations (5–150 mg/mL); cited from earlier work.
For series [7] the following is noted: previously screened from rice wine peptides; no reference number printed in the sentence; read-out: IC50, ABTS radical scavenging capacity; cited from earlier work.
For series [8] the following is noted: previously screened from rice wine peptides; no reference number printed in the sentence; read-out: IC50, DPPH radical scavenging capacity; cited from earlier work. On the technique in general: The DPPH test is a chemical assay of radical scavenging.
For series [9], the system named is HepG2 cells. The conditions noted are these: cited from earlier work; for Glucose consumption in HepG2 cells compared to the model group: walnut-derived peptides; for Insulin resistance in HepG2 cells exposed to high glucose: from goat milk casein hydrolysate. From the text:
In this study, the effect of YPLPR, AFEPLR, and NDPF on the glucose consumption of HepG2 cells in an insulin resistance state was investigated. […] The glucose consumption of peptides YPLPR, AFEPLR, and NDPF were 9.56 (9.37, 9.83), 10.56 ...

Series [10] deals with HepG2 cells. Description: Effect of insulin concentration on glucose consumption of HepG2 cells. In kind it is cell-based, human. Particulars: insulin 25.0 µmol/L, 24 h. The text has this:
Details are provided in the Supplementary Materials.

[11] abbreviates: at 1.0 mmol/mL (so in the source).
The mark [12] stands for this setting: peptides from malt, read-out: IC50, α-glucosidase inhibitory activity.
Where [13] appears, read: peptides from rice wine, read-out: IC50, α-glucosidase depressant activity.

α-glucosidase (Saccharomyces cerevisiae, UniProt P53341), sequence (P53341 whole entry): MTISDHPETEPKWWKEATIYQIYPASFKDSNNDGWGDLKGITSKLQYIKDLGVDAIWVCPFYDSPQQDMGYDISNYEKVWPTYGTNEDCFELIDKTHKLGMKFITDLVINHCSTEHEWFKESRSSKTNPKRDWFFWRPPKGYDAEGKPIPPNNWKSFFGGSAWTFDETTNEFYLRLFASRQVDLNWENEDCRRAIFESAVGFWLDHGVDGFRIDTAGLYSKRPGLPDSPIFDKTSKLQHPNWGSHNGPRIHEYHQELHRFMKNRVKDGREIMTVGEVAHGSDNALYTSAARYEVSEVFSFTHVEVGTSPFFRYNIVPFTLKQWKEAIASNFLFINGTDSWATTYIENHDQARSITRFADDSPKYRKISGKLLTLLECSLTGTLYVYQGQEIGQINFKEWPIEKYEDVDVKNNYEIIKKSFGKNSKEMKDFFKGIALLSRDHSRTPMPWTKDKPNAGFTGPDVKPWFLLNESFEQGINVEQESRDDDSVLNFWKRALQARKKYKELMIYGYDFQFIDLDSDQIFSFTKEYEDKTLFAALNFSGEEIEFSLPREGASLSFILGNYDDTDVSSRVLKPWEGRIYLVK

In general, IC50 refers to the midpoint of a concentration-inhibition curve. With `NC(=O)C[C@H](N)C(=O)N[C@@H](CC(=O)O)C(=O)N1CCC[C@H]1C(=O)N[C@@H](Cc1ccccc1)C(=O)O` [NDPF] (H-NDPF-OH), on α-glucosidase [1], the IC50 was 6.24 mM. Also, in the series with HepG2 cells [2] (setting [11]), the “Cytotoxicity (MTT)” value was “no cytotoxicity”.

Consider `OO` [Peptide H2O2], for which the Cell viability rate in the series on HepG2 cells [3] is reported as 56.38 (50.33, 68.00) %.

As to `CN(CCOc1ccc(CC2SC(=O)NC2=O)cc1)c1ccccn1` (centres unmarked) [rosiglitazone], the Glucose consumption with HepG2 cells [4] is given as 9.09 (8.29, 9.23) mmol/L.

Take “AEEEYPDL [peptide from Spanish dry-cured ham]”: in the series with α-glucosidase [5], the α-glucosidase activity inhibition result was “effectively inhibited α-glucosidase activity”.

Take AFEPLR [AFEPLR]: the IC50 on α-glucosidase [1] was 8.69 mM. Moreover, the “Cytotoxicity (MTT)” value in the series with HepG2 cells [2] (setting [11]) is recorded as “no cytotoxicity”.

Turning to AGGFR [peptide from malt], the IC50 on α-glucosidase [5] (setting [12]) is 8.66 ± 0.33 mM.

As to “AVPYPQ [peptide identified in the research of Pepe et al. (2016)]”, in series [6], the antioxidant activity result is on record as “showed antioxidant activity”.

With “EAMAPK [peptide identified in the research of Pepe et al. (2016)]”, the antioxidant activity entry in series [6] was “showed antioxidant activity”.

Regarding “FTYPR [peptide previously screened from rice wine peptides by molecular simulation]”, the IC50 at α-glucosidase [5] (setting [13]) is 3.57 mM; in series [7] it was 2.64 mM; in [8], 6.09 mM.

With LDLQR [peptide from malt], the IC50 on α-glucosidase [5] (setting [12]) was 8.59 ± 0.25 mM.

Take LDNFR [peptide from malt]: the IC50 on α-glucosidase [5] (setting [12]) was 9.21 ± 0.22 mM.

For “LGVGG [peptide from Spanish dry-cured ham]”, the α-glucosidase activity inhibition result with α-glucosidase [5] is listed as “effectively inhibited α-glucosidase activity”.

As for LRYL [walnut-derived peptide], the “Glucose consumption in HepG2 cells compared to the model group” value in the series on HepG2 cells [9] is given as “increased glucose consumption”.

Consider LVRL [walnut-derived peptide], for which, in the series with HepG2 cells [9], the “Glucose consumption in HepG2 cells compared to the model group” value is “increased glucose consumption”.

As for “NPWDQVKR [peptide extracted from goat milk casein hydrolysate]”, the “Insulin resistance in HepG2 cells exposed to high glucose” value (“Insulin resistance” for short) with HepG2 cells [9] is “improvement in insulin resistance”.

On to “QEPVLGPVRGPFP [peptide extracted from goat milk casein hydrolysate]”, for which the “Insulin resistance” value in the series with HepG2 cells [9] was “improvement in insulin resistance”.

Regarding “QFTPR [peptide from previous studies on rice wine]”, the IC50 at α-glucosidase [5] (setting [13]) is 9.18 mM.

Consider “SDIPNPIGSE [peptide extracted from goat milk casein hydrolysate]”, for which the “Insulin resistance” value in the series on HepG2 cells [9] is “improvement in insulin resistance”.

Take “SSLFR [peptide from previous studies on rice wine]”: on α-glucosidase [5] (setting [13]), the IC50 is 7.73 mM.

Take VLLALVLLR [walnut-derived peptide]: the “Glucose consumption in HepG2 cells compared to the model group” value with HepG2 cells [9] is “increased glucose consumption”.

Consider “WLRL [WLRL peptide from soybean protein, positive control]”, for which the “inhibitory effect toward α-glucosidase” value in the series with α-glucosidase [5] (peptide from soybean protein) was “good inhibitory effect toward α-glucosidase”.

In the case of YPLPR [YPLPR], the IC50 at α-glucosidase [1] worked out at 5.31 mM. Further, the “Cytotoxicity (MTT)” value with HepG2 cells [2] (setting [11]) is given as “no cytotoxicity”.

Consider “insulin: used to establish the insulin resistance model”, for which the “Cytotoxicity (MTT)” value with HepG2 cells [2] (insulin 25.0 µmol/L) was “not cytotoxic”. In addition, in the series with HepG2 cells [10], the “Cellular glucose consumption compared with the group without insulin” value is “significantly reduced”.
